The values that follow come from patent US7196192B2, “28-epirapalogs” (Ariad Gene Therapeutics, Inc., priority 1999, dated 2007).

Test [1] concerns the target T1, transcriptional switch components containing FKBP and 2098L mutant FRB domains (Homo sapiens, UniProt P42345+P62942).
T1 construct: transcriptional switchcomponents containing FKBP and 2098L mutant FRB domains, respectively; fused on or other part: The two switch components are separate chimeric proteins; Neither is given for this cell line
Briefly: transcription assay in engineered HD1080 cells expressing SEAP (txn 2098L). It is filed as cell-based. An excerpt: The ability of the rapalogs to multimerize chimeric proteins may be measured in cell-based assays by measuring the occurrence of an event triggered by such multimerization. For instance, one may use cells containing and capable of expressing DNA encoding a first chimeric protein comprising one or more FKBP-domains and one or more effector domains as well as DNA encoding a second chimeric protein containing an FRB domain and one or more effector domains capable, upon multimerization, of actuating a biological response. We prefer to use cells which further contain a reporter gene under the transcriptional control of a regulatory element (i.e., promoter) which is responsive to the multimerization of the chimeric proteins. The design and preparation of illustrative components and their use in so engineered cells is described in WO99/36553 and WO96/41865 and the other international patent applications referred to in this and the foregoing section. (See also W099/10510 for additional guidance on the design, assembly and delivery of nucleic acids to render cells and animals responsive to rapalogs of interest and for additional guidance on applications of such systems.) The cells are grown or maintained in culture. A rapalog is added to the culture medium and after a suitable incubation period (to permit gene expression and secretion, e.g. several hours or overnight) the presence of the reporter gene product is measured. Positive results, i.e., multimerization, correlates with transcription of the reporter gene as observed by the appearance of the reporter gene product. The reporter gene product may be a conveniently detectable protein (e.g. by ELISA) or may catalyze the production of a conveniently detectable product (e.g. colored). Materials and methods for producing appropriate cell lines for conducting such assays are disclosed in the international patent applications cited above in this section.
2. EC50 values of the various compounds was measured in a transcription assay using genetically engineered HD1080 cells which constitutively express transcriptional switch components containing FKBP and 2098L mutant FRB domains, respectively and which regulatably express secreted alkaline phosphatase (SEAP) in the presence of a compound which multimerizes the switch components. The assay is a literature assay. See WO 99/36553, e.g. Example 12, pages 120–121 (& FIG. 2D) […]

A further test concerns murine splenocyte. Briefly: murine splenocyte assay for immunosuppressive activity. It is filed as cell-based. The settings on record: for immunosuppressive activity compared with rapamycin: splenocyte proliferation assay, versus rapamycin. The method, then:
3. Conventional murine splenocyte assay for immunosuppressive activity.
(§1) A diverse group of C7-modified 28-epirapalogs were prepared as described in Example 4.

Another test has as its target FKBP (Homo sapiens, UniProt P62942). Kind of test: FKBP competitive binding assay based on fluorescence polarization (FP). The settings on record: for IC50: competitive FP binding, methods of Example 2.5. The procedure:
A Competitive Binding FP Assay is described in detail in WO99/36553 and WO96/41865. That assay permits the in vitro measurement of an IC50 value for a given compound which reflects its ability to bind to an FKBP-protein in competition with a labeled FKBP ligand, such as, for example, FK506.
as §1

[2] abbreviates: cellular transcription assay, methods of Example 2.5; read-out: TXN 2098L EC50.
The mark [3] stands for this setting: mouse splenocyte assay, methods of Example 2.5, read-out: Splenocyte IC50.
[4] abbreviates: read-out: TXN 2098L EC50; cellular transcription assay, methods of Example 2.5.
Where [5] appears, read: Mus musculus, Splenocyte, mouse splenocyte assay, methods of Example 2.5, read-out: Splenocyte IC50.
Setting [6] is: Mus musculus, Splenocyte, murine splenocyte assay, immunosuppressive activity, read-out: Splenocyte IC50.

Where “and” joins values, the source holds several entries; their conditions need not be identical. Equal entries are not always repeated. Where two headings read alike, the source gives them in different places.

T1 sequence (P62942 2-108 limits assumed, stated change not applied, other chains not shown): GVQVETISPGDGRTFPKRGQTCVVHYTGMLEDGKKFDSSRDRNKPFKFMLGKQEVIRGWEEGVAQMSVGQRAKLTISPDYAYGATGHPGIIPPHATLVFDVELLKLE
Chain of FKBP (P62942 whole entry): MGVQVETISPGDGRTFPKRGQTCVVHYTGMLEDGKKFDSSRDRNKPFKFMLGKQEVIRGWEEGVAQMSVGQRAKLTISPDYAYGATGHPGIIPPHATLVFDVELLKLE

28-epi-7R-(3′-methyl)-but-4′-enyloxy: the EC50 in test [1] (setting [2]) came out at 35 nM. Moreover, the results for the IC50 with murine splenocyte (setting [3]) and at FKBP (read-out: FKBP IC50) were 3160 nM and 13 nM, respectively.

Regarding 28-epi-7S-(3′-methyl)-but-4′-enyloxy, the EC50 in test [1] (setting [2]) was 16 nM. The results for the IC50 in the test with murine splenocyte (setting [3]) and on FKBP (read-out: FKBP IC50) were 718 nM and 27 nM, respectively.

On to 28-epi-7S-dimethylthiophene, for which the EC50 in test [1] (setting [2]) came out at 30 nM. In addition, the IC50 with murine splenocyte (setting [3]) was 1240 to 1540 nM; at FKBP (read-out: FKBP IC50), 78 nM.

`COc1ccccc1COC1CC2CCC(C)C(O)(O2)C(=O)C(=O)N2CCCCC2C(=O)OC(C(C)CC2CCC(O)C(OC)C2)CC(=O)C(C)C=C(C)C(O)C(OC)C(=O)C(C)CC(C)C=CC=CC=C1C` (single isomer, unassigned) [28-epi-7R-2′-methoxybenzyloxy]: in test [1] (setting [2]), the EC50 came out at 24 nM. Moreover, the IC50 was 653 nM in the test on murine splenocyte (setting [3]) and 4.6 nM on FKBP (read-out: FKBP IC50).

For the molecule `COC1CC(CC(C)C2CC(=O)C(C)C=C(C)C(O)C(OC)C(=O)C(C)CC(C)C=CC=CC=C(C)C(N(C)C(=O)OCC(C)C)CC3CCC(C)C(O)(O3)C(=O)C(=O)N3CCCCC3C(=O)O2)CCC1O` (single isomer, unassigned) [28-epi-7R-N-Me-isobutylcarbamate], the 50% effective concentration (EC50) in test [1] (setting [2]) stood at 15 nM. Moreover, the results for the 50% inhibitory concentration (IC50) with murine splenocyte (setting [3]) and on FKBP (read-out: FKBP IC50) were 587 nM and 109 nM, respectively.

Consider `CCCS(=O)(=O)N(C)C1CC2CCC(C)C(O)(O2)C(=O)C(=O)N2CCCCC2C(=O)OC(C(C)CC2CCC(O)C(OC)C2)CC(=O)C(C)C=C(C)C(O)C(OC)C(=O)C(C)CC(C)C=CC=CC=C1C` (single isomer, unassigned) [28-epi-7R-N-Me-propanesulfonamide], for which the EC50 in test [1] (setting [2]) was determined as 9 nM. Moreover, the IC50 in the test with murine splenocyte (setting [3]) stood at 1370 nM; on FKBP (read-out: FKBP IC50), 148 nM.

For `CCOC(=O)N(C)C1CC2CCC(C)C(O)(O2)C(=O)C(=O)N2CCCCC2C(=O)OC(C(C)CC2CCC(O)C(OC)C2)CC(=O)C(C)C=C(C)C(O)C(OC)C(=O)C(C)CC(C)C=CC=CC=C1C` (single isomer, unassigned) [28-epi-7R-N-methyl-ethylcarbamate], the EC50 in test [1] (setting [2]) was found to be 9 nM. Besides, the IC50 with murine splenocyte (setting [3]) came to 255 nM; on FKBP (read-out: FKBP IC50), 120 nM.

Turning to `COC1CC(CC(C)C2CC(=O)C(C)C=C(C)C(O)C(OC)C(=O)C(C)CC(C)C=CC=CC=C(C)C(OCc3ccccc3)CC3CCC(C)C(O)(O3)C(=O)C(=O)N3CCCCC3C(=O)O2)CCC1O` (single isomer, unassigned) [28-epi-7R-benzyloxy], in test [1] (setting [2]), the EC50 is 14 nM. Further, the IC50 is 313 nM in the test on murine splenocyte (setting [3]) and 9.1 nM on FKBP (read-out: FKBP IC50).

Turning to `COc1ccccc1COC1CC2CCC(C)C(O)(O2)C(=O)C(=O)N2CCCCC2C(=O)OC(C(C)CC2CCC(O)C(OC)C2)CC(=O)C(C)C=C(C)C(O)C(OC)C(=O)C(C)CC(C)C=CC=CC=C1C` (single isomer, unassigned) [28-epi-7S-2′-methoxybenzyloxy], in test [1] (setting [2]), the EC50 came out at 15 nM. Also, the IC50 with murine splenocyte (setting [3]) was 25 nM; on FKBP (read-out: FKBP IC50), 33 nM.

For `CO[C@@H]1C[C@H](C[C@@H](C)[C@@H]2CC(=O)[C@H](C)/C=C(\C)[C@H](O)[C@@H](OC)C(=O)[C@H](C)C[C@H](C)/C=C/C=C/C=C(\C)[C@H](Oc3ccccc3C)C[C@@H]3CC[C@@H](C)[C@@](O)(O3)C(=O)C(=O)N3CCCC[C@H]3C(=O)O2)CC[C@H]1O` [28-epi-7R-2′-methylphenyloxy], the EC50 in test [1] (setting [4]) worked out at 8 nM. Besides, the “TXN 2098L peak relative to rapamycin peak” value in test [1] (superscript mark on EC50 cell) is recorded as “(+) (peak was >125% rapamycin peak)”. For the same molecule, on FKBP (FKBP IC50 (nM)), the IC50 was 8.1 nM.

As for `CO[C@@H]1C[C@H](C[C@@H](C)[C@@H]2CC(=O)[C@H](C)/C=C(\C)[C@H](O)[C@@H](OC)C(=O)[C@H](C)C[C@H](C)/C=C/C=C/C=C(\C)[C@H](N(C)S(=O)(=O)N(C)C)C[C@@H]3CC[C@@H](C)[C@@](O)(O3)C(=O)C(=O)N3CCCC[C@H]3C(=O)O2)CC[C@H]1O` [28-epi-7R-N-Me-dimethylsulfamide], the 50% effective concentration (EC50) in test [1] (setting [2]) turned out to be 8 nM. Besides, in the test with murine splenocyte (setting [3]), the IC50 was 653 nM.

Consider `CO[C@@H]1C[C@H](C[C@@H](C)[C@@H]2CC(=O)[C@H](C)/C=C(\C)[C@H](O)[C@@H](OC)C(=O)[C@H](C)C[C@H](C)/C=C/C=C/C=C(\C)[C@H](N(C)S(=O)(=O)N(C)c3ccccc3)C[C@@H]3CC[C@@H](C)[C@@](O)(O3)C(=O)C(=O)N3CCCC[C@H]3C(=O)O2)CC[C@H]1O` [28-epi-7R-N-Me-methylphenylsulfamide], for which the EC50 in test [1] (setting [2]) stood at 8 nM. Further, the IC50 on FKBP (read-out: FKBP IC50) came out at 74 nM.

For the molecule `CCOC1CC2CCC(C)C(O)(O2)C(=O)C(=O)N2CCCCC2C(=O)OC(C(C)CC2CCC(O)C(OC)C2)CC(=O)C(C)C=C(C)C(O)C(OC)C(=O)C(C)CC(C)C=CC=CC=C1C` (stereo not drawn) [28-epi-7R-ethoxy], the EC50 in test [1] (setting [2]) came to 33 nM.

Take `CO[C@@H]1C[C@H](C[C@@H](C)[C@@H]2CC(=O)[C@H](C)/C=C(\C)[C@H](O)[C@@H](OC)C(=O)[C@H](C)C[C@H](C)/C=C/C=C/C=C(\C)[C@@H](Oc3ccccc3C)C[C@@H]3CC[C@@H](C)[C@@](O)(O3)C(=O)C(=O)N3CCCC[C@H]3C(=O)O2)CC[C@H]1O` [28-epi-7S-2′-methylphenyloxy]: the EC50 in test [1] (setting [4]) is 14 nM. Moreover, the IC50 on FKBP (FKBP IC50 (nM)) is 17 nM.

As for `CO[C@@H]1C[C@H](C[C@@H](C)[C@@H]2CC(=O)[C@H](C)/C=C(\C)[C@H](O)[C@@H](OC)C(=O)[C@H](C)C[C@H](C)/C=C/C=C/C=C(\C)[C@@H](N(C)S(=O)(=O)N(C)c3ccccc3)C[C@@H]3CC[C@@H](C)[C@@](O)(O3)C(=O)C(=O)N3CCCC[C@H]3C(=O)O2)CC[C@H]1O` [28-epi-7S-N-Me-methylphenylsulfamide], in test [1] (setting [2]), the EC50 amounted to 26 nM.

On to `COC1CC(CC(C)C2CC(=O)C(C)C=C(C)C(O)C(OC)C(=O)C(C)CC(C)C=CC=CC=C(C)C(OCCC3CCCCC3)CC3CCC(C)C(O)(O3)C(=O)C(=O)N3CCCCC3C(=O)O2)CCC1O` (stereo not drawn) [28-epi-7S-cyclohexylethyloxy], for which, in test [1] (setting [2]), the EC50 is 76 nM.

Consider `CCOC1CC2CCC(C)C(O)(O2)C(=O)C(=O)N2CCCCC2C(=O)OC(C(C)CC2CCC(O)C(OC)C2)CC(=O)C(C)C=C(C)C(O)C(OC)C(=O)C(C)CC(C)C=CC=CC=C1C` (stereo not drawn) [28-epi-7S-ethoxy], for which the EC50 in test [1] (setting [2]) was 15 nM. Besides, in the test with murine splenocyte (Mus musculus, Splenocyte, read-out: Splenocyte IC50 (nM)), the IC50 amounted to 801 nM.

For the molecule `CO[C@@H]1C[C@H](C[C@@H](C)[C@@H]2CC(=O)[C@H](C)/C=C(\C)[C@H](O)[C@@H](OC)C(=O)[C@H](C)C[C@H](C)/C=C/C=C/C=C(\C)[C@@H](OC(C)C)C[C@@H]3CC[C@@H](C)[C@@](O)(O3)C(=O)C(=O)N3CCCC[C@H]3C(=O)O2)CC[C@H]1O` [28-epi-7S-isopropyloxy], the EC50 in test [1] (setting [2]) was 29 nM. The IC50 at FKBP (read-out: FKBP IC50) is 49 nM.

With `COC1CC(CC(C)C2CC(=O)C(C)C=C(C)C(O)C(OC)C(=O)C(C)CC(C)C=CC=CC=C(C)C(SC(C)C)CC3CCC(C)C(O)(O3)C(=O)C(=O)N3CCCCC3C(=O)O2)CCC1O` (stereo not drawn) [28-epi-7S-isopropylthioether], the “TXN 2098L peak relative to rapamycin peak” value in test [1] (superscript mark on EC50 cell) is reported as “(+) (peak was >125% rapamycin peak)”. The concentration for half-maximal inhibition (IC50) at FKBP (read-out: FKBP IC50) was 15 nM and 21 nM.

Regarding `CO[C@H]1C[C@@H]2CC[C@@H](C)[C@@](O)(O2)C(=O)C(=O)N2CCCCC2C(=O)O[C@H]([C@H](C)C[C@@H]2CC[C@@H](O)[C@H](OC)C2)CC(=O)[C@H](C)/C=C(\C)[C@H](O)[C@@H](OC)C(=O)[C@H](C)C[C@H](C)/C=C/C=C/C=C/1C` (stereo partly shown) [28-epirapamycin], the IC50 with murine splenocyte (setting [5]) and with murine splenocyte (setting [6]) was 0.9 to 3.5 nM in each case. Moreover, the figures for the “immunosuppressive activity compared with rapamycin” value with murine splenocyte and in the test on murine splenocyte (listed as 2) were “less potent immunosuppressive activity” and “more than an order of magnitude reduced”, respectively. At FKBP (fluorescence polarization competition assay, versus rapamycin), the “affinity towards FKBP, times weaker than that of rapamycin” value is listed as “about 5 times”.

As for `CO[C@H]1C[C@@H]2CC[C@@H](C)[C@@](O)(O2)C(=O)C(=O)N2CCCCC2C(=O)O[C@H]([C@H](C)C[C@@H]2CC[C@@H](O)[C@H](OC)C2)CC(=O)[C@H](C)/C=C(\C)[C@@H](O)[C@@H](OC)C(=O)[C@H](C)C[C@H](C)/C=C/C=C/C=C/1C` (stereo partly shown) [rapamycin, reference compound], the IC50 in the test with murine splenocyte (setting [5]) and in the test on murine splenocyte (setting [6]) was 0.1 to 0.3 nM in each case.
